According to patent publication US20240368194A1, “IRAK4 DEGRADATION AGENT, AND PREPARATION METHOD THEREFOR AND USE THEREOF” (SHANGHAI LEADINGTAC PHARMACEUTICAL CO. LTD., priority 2021, published 2024):

Assays:
[1] = molecular target: IRAK4 protein in THP-1 cells (Homo sapiens (Human), UniProt Q9NWZ3); test: Degradation of IRAK4 in THP-1 cells, human IRAK4 AlphaLISA assay; type: cell-based; details: 24 h incubation
Procedure, shortened: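 THP-1 cells, after overnight plating, exposed 24 h at 37 °C to compound at 0.03-3000 nM final. Lysate IRAK4 read by Western blot and by AlphaLISA (acceptor beads 10 μg/mL, biotin anti-IRAK4 1 nM, donor beads 40 μg/mL, 23 °C). DC50 and Dmax from log concentration-response fit.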

[2] = test system: IL-6 production in LPS-induced human whole blood; test: IL-6 secreted by LPS-induced normal human whole blood PBMCs (IL-6 AlphaLISA); type: cell-based; details: compound 20 h, then LPS 100 ng/mL 5 h
Protocol: Fresh normal human whole blood (healthy people from 22-50 years of age, freshly collected blood) anticoagulated with heparin sodium was plated onto a 96-well clear cell plate (Labserv, 310109008) at 190 μL/well, and 10 μL of diluted compound solution was then added to corresponding wells, such that the final concentration of the compound fell within the range of 10-20,000 nM. The final concentration of dimethyl sulfoxide was 0.1%. The compound-treated cell plate was sealed with a plate-sealing membrane. After the plate was incubated in a 37° C., 5% carbon dioxide incubator for 20 h, 10 μL of LPS (0111:B4) (Sigma, L4391) was added, making a final concentration of 100 ng/mL. […]
IL-6 standard solutions with different concentrations, ranging from […], were prepared by following the instructions for use of the product, 2 μL of each of the IL-6 standard solutions and test samples of cell supernatant were added to a white 384-well plate (PerkinElmer, 6007299), and 8 μL of a mixed solution of 5× anti-IL-6 receptor beads (PerminElmer, final concentration of 10 μg/mL) and biotin-labeled anti-IL-6 antibody (PerminElmer, final concentration of 1 nM) was then added to each well. […] After the incubation was complete, AlphaLISA signal values were measured on a microplate reader EnVision (PerkinElmer, 2105) in the AlphaScreen standard mode. […]

[3] = test system: IL-6 production in LPS-induced human PBMCs; test: IL-6 secreted by LPS-induced human PBMCs (IL-6 AlphaLISA); type: cell-based; details: PBMC, compound 1 h or 20 h, then LPS 100 ng/mL 5 h, read-out: hPBMC IC50
Protocol: Frozen human PBMCs (Milestone, PB010C) were thawed and resuspended in RPMI 1640 medium (Gibco, A1049101) supplemented with 10%/o fetal bovine serum (Gibco, 10099141), 100 U/mL penicillin and 100 sg/mL streptomycin (Gibco, 15140122). On the same day. PBMCs were plated onto a 96-well clear cell plate (Labserv, 310109008) at 150 μL/well, with a cell density of 2×10^5 cells/well. Then 50 μL of diluted compound solution was added to corresponding wells with cells, such that the final concentration of the compound fell within the range of 0.026-10,000 nM. The final concentration of DMSO was 0.25%. […]
IL-6 standard solutions with different concentrations, ranging from […], were prepared by following the instructions for use of the product, 2 μL of each of the IL-6 standard solutions and test samples of cell supernatant were added to a white 384-well plate (PerkinElmer, 6007299), and 8 μL of a mixed solution of 5×anti-IL-6 receptor beads (final concentration of 10 μg/mL) and biotin-labeled anti-IL-6 antibody (final concentration of 1 nM) was then added to each well. […] After the incubation was complete, AlphaLISA signal values were measured on a microplate reader EnVision (PerkinElmer, 2105) in the AlphaScreen standard mode. […] The inhibition rate of the compound at each concentration was calculated by comparing the IL-6 concentration with that of the control group. […]

[4] = molecular target: IRAK4 kinase (Homo sapiens (Human), UniProt Q9NWZ3); test: IRAK4 kinase activity test (KinEASE-STK S1 HTRF kit); type: biochemical; details: 2.5 nM IRAK4 kinase, 7 μM ATP, 37° C. 120 min
Procedure, shortened: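 Human IRAK4 (2.5 nM) with 1 μM biotinylated peptide substrate and 7 μM ATP, incubated 120 min at 37 °C. HTRF read-out (Eu anti-phospho-Ser/Thr antibody, XL665-streptavidin; 665/620 nm ratio) after 1 h at room temperature. IC50 from inhibition relative to control by non-linear fit of log concentration.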

Sequence of IRAK4 protein in THP-1 cells (Q9NWZ3 whole entry): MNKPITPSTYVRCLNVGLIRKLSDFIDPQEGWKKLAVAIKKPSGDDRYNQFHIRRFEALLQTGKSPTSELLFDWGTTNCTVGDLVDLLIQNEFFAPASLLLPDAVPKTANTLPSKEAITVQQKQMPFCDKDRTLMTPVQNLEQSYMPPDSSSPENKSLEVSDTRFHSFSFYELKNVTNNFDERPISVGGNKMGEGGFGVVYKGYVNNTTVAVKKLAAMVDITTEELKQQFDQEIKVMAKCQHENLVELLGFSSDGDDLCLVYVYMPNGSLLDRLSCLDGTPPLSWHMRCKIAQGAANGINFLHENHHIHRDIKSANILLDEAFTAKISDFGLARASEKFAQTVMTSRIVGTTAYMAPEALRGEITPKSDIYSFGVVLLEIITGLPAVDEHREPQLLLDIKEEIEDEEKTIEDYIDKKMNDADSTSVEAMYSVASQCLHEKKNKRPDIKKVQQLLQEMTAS
Sequence of IRAK4 kinase (Q9NWZ3 whole entry): as above

| DC50 [1] [nM] | Dmax [1] [%] | IC50 [4] [nM] | SMILES | IC50 [2] [nM] | IC50 [3] [nM] |
| --- | --- | --- | --- | --- | --- |
| 3.7 | 90 | 30.3 | O=C1CCN(c2cc(C(=O)N3CCC4(CCC(CN5CCC(n6cc(NC(=O)c7cnn8ccc(N9C[C@H]%10C[C@@H]9CO%10)nc78)c(C(F)F)n6)CC5)CC4)CC3)ccc2Cl)C(=O)N1 [Example 1, 5-((1R,4R)-2-oxa-5-azabicyclo[2.2.1]heptan-5-yl)-N-(1-(1-((3-(4-chloro-3-(2,4-dioxotetrahydropyrimidin-1(2H)-yl)benzoyl)-3-azaspiro[5.5]undecan-9-yl)methyl)piperidin-4-yl)-3-(difluoromethyl)-1H-pyrazol-4-yl)pyrazolo[1,5-a]pyrimidine-3-carboxamide] | 287 | 3.1 |
| 1.8 | 95.8 | 15.5 | O=C1CCN(c2cc(C(=O)N3CCC4(CCN(C[C@H]5CC[C@H](n6cc(NC(=O)c7cnn8ccc(N9C[C@H]%10C[C@@H]9CO%10)nc78)c(C(F)F)n6)CC5)CC4)CC3)ccc2Cl)C(=O)N1 [Example 2, 5-((1R,4R)-2-oxa-5-azabicyclo[2.2.1]heptan-5-yl)-N-(1-((1r,4R)-4-((9-(4-chloro-3-(2,4-dioxotetrahydropyrimidin-1(2H)-yl)benzoyl)-3,9-diazaspiro[5.5]undecan-3-yl)methyl)cyclohexyl)-3-(difluoromethyl)-1H-pyrazol-4-yl)pyrazolo[1,5-a]pyrimidine-3-carboxamide] | 246 | 2.2 |
